This is an account of results in paper PMC11596599, “Structure Characterization of Four New Sesquiterpene Pyridine Alkaloids from Tripterygium wilfordii Hook. f. and Anti-Inflammatory Activity Evaluations” (Molecules, 2024).

For one data set, the system named is nitric oxide generation. Particulars: cited from earlier work; for IC50: LPS induced RAW264.7 cells ref 24, read-out: IC50 (nitric oxide inhibitory effects); for suppressed nitric oxide generation: LPS induced RAW264.7 cells, concentration of 5 μM ref 23.
In data set [1] the test system is NF-κB pathway. The data set can be described thus: NF-κB luciferase reporter assay in LPS-induced HEK293/NF-κB-Luc cells. The format is cell-based. Conditions: for inhibition at 100 µM / IC50: Homo sapiens; for inhibition at 100 µM: HEK293, 24 h, read-out: NF-κB Inhibitory Rates (%) (n = 3); for IC50: read-out: IC50 (NF-κB inhibition). As to the method:
Anti-inflammation bioassays were carried out using the HEK293/NF-κB-Luc cells, which were produced as the described procedure. The HEK293/NF-κB-Luc cells were inoculated into 48-well plates and cultured in DMEM supplemented with 10% fetal bovine serum (FBS) for 16 h. Following treatment with the tested compounds, the cells were simulated with 1 μg/mL of LPS for a duration of 24 h. Then, the cells were rinsed twice with phosphate-buffered saline (PBS, pH 7.4) prior to lysing with passive lysis buffer. Then, the inhibitory effects on NF-κB were analyzed using the luciferase assay system according to the manufacturer’s instructions. All the experiments were performed in triplicate.
A general note: In a reporter assay the amount or activity of a reporter protein is the signal.

Data set [2] in a line: Cell viability by CCK-8 method. The format is cell-based. Particulars: human; HEK293 cells, CCK-8, compounds at 100 μM, 48 h; read-out: Cell Viability (%) (n = 3). As to the method: (§1) The effect of the test compounds on the viability of HEK293 cells was determined by the CCK-8 method. Briefly, HEK293 cells were inoculated into 96-well plates with 5 × 10^3 cells per well and incubated at 37 °C with 5% CO2 for 24 h. The cells were treated with test compounds and incubated for 48 h; then, 20 μL of the CCK-8 reagent was added into each well and incubated for another 2 h. The absorbance at 450 nm was measured with a microplate reader to further calculate the cell viability. All experiments were performed in triplicate.
Background: Formazan colour is commonly taken as a measure of viable cells.

For the next data set, the system named is HEK293 cells. The data set can be described thus: Cell viability by CCK-8 method. The format is cell-based. Particulars: concentration of 100 μM. As to the method:
as §1

Data set [3] deals with NF-κB pathway. Set-up: method as in PMID 36364101. Particulars: LPS-induced HEK293/NF-κB-Luc cells; previous study ref 26; read-out: IC50 (inhibitory activity on the NF-κB pathway); cited from earlier work.
Data set [4] relates to cytokines (TNF-α, IL-1β, IL-8, IL-2, IL-4, and IFN-γ). Set-up: method as in PMID 11374948. Particulars: 10 μg/mL, IL-8, IL-2, IL-4, IFN-γ, inhibitory rates reaching 100% in some cases ref 25; cited from earlier work.
[5] abbreviates: compounds at 100 μM, 1 μg/mL LPS 24 h.

“Also recorded” adds a separate entry of the source. Like-named read-outs stand apart in the source and are kept apart here.

For orientation: IC50 means the concentration at which inhibition is half-maximal. Broadly, the viability is a per cent measure of how many cells are alive, often set against a control.

As for `CC(=O)OCC12C(OC(C)=O)C(=O)C3C(OC(C)=O)C14OC3(C)COC(=O)c1cccnc1CCC(C)(OC(=O)c1ccoc1)C(=O)OC(C(O)C2OC(C)=O)C4(C)O` (stereo not shown) [tripterygiumine S], the IC50 in the data set with nitric oxide generation is 23.8 ± 4.38 µM.
For `CC(=O)OC[C@]12[C@H](OC(C)=O)[C@H](OC(C)=O)[C@@H]3[C@@H](OC(C)=O)[C@@]14O[C@@]3(C)COC(=O)c1cccnc1CCC(C)C(=O)O[C@@H]([C@H](OC(C)=O)[C@@H]2OC(C)=O)[C@]4(C)O` (stereo partly shown) [euonine], the “suppressed nitric oxide generation” value with nitric oxide generation is given as 54.7%.
In the case of `CC(=O)OC[C@]12[C@H](OC(C)=O)[C@H](OC(C)=O)[C@@H]3[C@@H](OC(C)=O)[C@@]14O[C@@]3(C)COC(=O)c1cnccc1C(C)C(C)C(=O)O[C@@H]([C@H](O)[C@@H]2OC(C)=O)[C@]4(C)O` (stereo partly shown) [Compound 6, wilfordinine A], the inhibition at 100 µM in the data set on NF-κB pathway [1] (setting [5]) was greater than 45%. The IC50 in the data set on NF-κB pathway [1] was 9.05 µM. The “suppressed nitric oxide generation” value with nitric oxide generation is on record as 59.0%. Further, the viability at 48 h, 100 µM in data set [2] stood at 92.4 ± 7.62%. Also, the “influence on cell viability (in words)” value with HEK293 cells is “no influence on the cell viability; also recorded: no cytotoxicity”.
Consider `CC(=O)OCC12C(OC(C)=O)C(OC(C)=O)C3C(OC(C)=O)C14OC3(C)COC(=O)c1cnccc1C(C)C(C)(O)C(=O)OC(C(OC(C)=O)C2OC(C)=O)C4(C)O` (stereo not shown) [Compound 7, wilfordinine B], for which, in the data set on NF-κB pathway [1] (setting [5]), the inhibition at 100 µM came out at 32.1 ± 5.7%. For the same compound, the viability at 48 h, 100 µM in data set [2] was determined as 95 ± 36.2%.
Take `CC(=O)OC[C@]12[C@H](OC(C)=O)[C@H](OC(C)=O)[C@@H]3[C@@H](OC(C)=O)[C@@]14O[C@@]3(C)COC(=O)c1cccnc1CCC(C)C(=O)O[C@@H]([C@H](OC(=O)c1ccccc1)[C@@H]2OC(C)=O)[C@]4(C)O` (stereo partly shown) [wilforine]: the IC50 with NF-κB pathway [3] was 15.7 µM.
For the compound `CC(=O)OC[C@]12[C@H](OC(C)=O)[C@H](OC(C)=O)[C@@H]3[C@@H](OC(C)=O)[C@@]14O[C@@]3(C)COC(=O)c1cccnc1CCC(C)(O)C(=O)O[C@@H]([C@H](O)[C@@H]2OC(C)=O)[C@@]4(C)O` (stereo partly shown) [tripfordine A], in the data set on NF-κB pathway [3], the IC50 was 0.74 µM.
In the case of `CC(=O)OCC12C(OC(C)=O)C(OC(C)=O)C3C(OC(C)=O)C14OC3(C)COC(=O)c1cnccc1C(C)C(C)C(=O)OC(C(OC(C)=O)C2OC(C)=O)C4(C)O` (stereo not shown) [Compound 8, peritassine A], in the data set with NF-κB pathway [1] (setting [5]), the inhibition at 100 µM was 19.1 ± 3.2%. Moreover, the “suppressed nitric oxide generation” value with nitric oxide generation is recorded as 8.2%. Moreover, the viability at 48 h, 100 µM in data set [2] was 93.9 ± 6.1%.
Regarding `CC(=O)OC[C@]12[C@H](OC(C)=O)[C@H](OC(C)=O)[C@@H]3[C@@H](OC(=O)c4ccccc4)[C@@]14O[C@@]3(C)COC(=O)c1cccnc1C(C)C(C)C(=O)O[C@@H]([C@H](OC(C)=O)[C@@H]2OC(=O)c1ccccc1)[C@]4(C)O` (stereo partly shown) [ebenifoline E-11], the “inhibitory effects on the production of cytokines (in words)” value in data set [4] is listed as “significant inhibitory effects”.
As to `Cc1ccc(NCCCc2ccccc2)c(N)c1` [JSH23, reference compound], the “NF-κB Inhibitory Rates (%) (n = 3)” value with NF-κB pathway [1] (setting [5]) is given as 74.56 ± 1.83%.
Consider `CC(=O)OCC12C(OC(C)=O)C(O)C3OC(=O)C(C)C(C)c4ccncc4C(=O)OCC4(C)OC1(C(O)C4C(OC(C)=O)C2OC(C)=O)C3(C)O` (stereo not drawn) [Compound 4, 1β,7β,8β,11-tetraacetoxy-1β,4α,5α-trihydroxy-3α,15-[2′,3′-dimethyl-3′-(3″-carboxy-4″-pyridyl)propanic acid] dicarbolactone dihydro-β-agarofuran], for which, in the data set on NF-κB pathway [1] (setting [5]), the inhibition at 100 µM is greater than 45%. In addition, the IC50 in the data set on NF-κB pathway [1] turned out to be 1.64 µM. Moreover, in data set [2], the viability at 48 h, 100 µM stood at 100 ± 2.55%. In the data set on HEK293 cells, the “influence on cell viability (in words)” value is “no influence on the cell viability; also recorded: no cytotoxicity”.
Consider `CC(=O)OCC12C(OC(C)=O)C(OC(C)=O)C3C(OC(C)=O)C14OC3(C)COC(=O)c1cnccc1CCC(C)(O)C(=O)OC(C(OC(=O)c1ccco1)C2OC(C)=O)C4(C)O` (stereo not shown) [Compound 2, wilfordinine H], for which the inhibition at 100 µM with NF-κB pathway [1] (setting [5]) was 33.9 ± 2.06%. For the same compound, the viability at 48 h, 100 µM in data set [2] is 94.2 ± 5.75%.
In the case of wilfordatine E, in the data set with NF-κB pathway [3], the IC50 was 8.75 µM.
Turning to `CC(=O)OC[C@]12[C@H](OC(C)=O)C(=O)[C@@H]3[C@@H](OC(C)=O)[C@@]14O[C@@]3(C)COC(=O)c1cccnc1CCC(C)(OC(C)=O)C(=O)O[C@@H]([C@H](OC(=O)c1ccoc1)[C@@H]2OC(C)=O)[C@]4(C)O` (stereo partly shown) [9′-O-acetyl-7-deacetoxy-7-oxowilfortrine], the IC50 in the data set with nitric oxide generation is 2.59 ± 3.59 µM.
As for `CC(=O)OC[C@]12[C@H](OC(C)=O)[C@H](OC(C)=O)[C@@H]3[C@@H](OC(=O)c4ccccc4)[C@@]14O[C@@]3(C)COC(=O)c1cccnc1C(C)C(C)C(=O)O[C@@H]([C@H](OC(C)=O)[C@@H]2OC(C)=O)[C@]4(C)O` (stereo partly shown) [congorinine E-1], the “inhibitory effects on the production of cytokines (in words)” value in data set [4] is on record as “significant inhibitory effects”.
